Results on three compounds are retold here after publication PMC6316600, “Analgesic Activity of Acid-Sensing Ion Channel 3 (ASIС3) Inhibitors: Sea Anemones Peptides Ugr9-1 and APETx2 versus Low Molecular Weight Compounds” (Marine Drugs, 2018).

The subject of assay [1] is mice. In words: Acetic acid-induced writhing. It is filed as in vivo, CD-1 mice. On the procedure: Acetic acid-induced writhing is based on irritation of tissues and organs of the abdomen by low pH and could be considered the most appropriate test for influence on acid-induced pain. […] It is interesting that the effects of sevanol and Ugr9-1 plateaued at a wide range of doses (0.01–1mg/kg for sevanol and 0.02–1 mg/kg Ugr9-1) (Figure 3C,D).
Figure 3 Effects of ligands in an acetic acid-induced writhing test. […] (A) Efficacy of ASIC3 antagonists at a dose of 1 mg/kg. (B–D) Dose-dependent chart of ligands’ effects: APETx2 (B), sevanol (C), and Ugr9-1 (D). Results are presented as mean ± SEM (n = 8). ** p < 0.01, *** p < 0.001 versus saline group (ANOVA followed by a Tukey’s test).
Adult male CD-1 mice (Animal Breeding Facility Branch of Shemyakin-Ovchinnikov Institute of Bioorganic Chemistry, Russian Academy of Sciences, Pushchino, Russia) weighing 20–25 g were used. Animals that originally passed clinical examination that confirmed no deviations in health were divided into groups (at least eight male mice per group) using the principle of randomization. The average body weight of animals in each group was not statistically different between groups. Animals were housed at room temperature (23 ± 2 °C) and subjected to a 12-h light-dark cycle with food and water available ad libitum. All experiments were performed after receiving approval from the Animal Care and Use Committee of the Branch of the Institute of Bioorganic Chemistry, Russian Academy of Sciences (IBCh RAS) (Pushchino, Russia Federation). The samples were administered intramuscularly 2 h before testing (4 h in the open field test). […]
Separate groups of mice were used. Writhes were caused 2 h after the intramuscular injection of the samples (saline for control mice) with the injection of 0.6% acetic acid in saline (10 mL/kg intraperitoneally). Mice were immediately placed inside transparent glass cylinders, and the latency of a first writhe and the number of writhes were recorded for 15 min.
(§1) The data significance in animal tests was determined by an analysis of variance followed by a Tukey’s test. Data are presented as the mean ± SEM.
(In writhing tests, fewer writhes than in controls are read as antinociception.)

Assay [2] has as its system mice. Put plainly: CFA-induced paw oedema. It is filed as in vivo, CD-1 mice. The conditions noted are these: n = 7–8; for Reduction of inflammation (paw oedema): within 24 h; for Anti-inflammatory effect within 4 h: intramuscular, within 4 h after administration. On the procedure: To reveal the anti-inflammatory effects of ASIC3 antagonists, paw oedema changes were also evaluated (Figure 5). […] APETx2 in a dose of 1 mg/kg reduced paw oedema by 16%, 24%, and 44% compared to the control group at 2, 4, and 24 h after administration, respectively. APETx2 at 0.2 mg/kg reduced inflammation by approximately 20% only 24 h after administration.
Figure 5 Anti-inflammatory effect of ligands. […] Results are presented as mean ± SEM (n = 7–8). * p < 0.05, ** p < 0.01, *** p < 0.001 versus saline group (ANOVA followed by a Tukey’s test).
Adult male CD-1 mice (Animal Breeding Facility Branch of Shemyakin-Ovchinnikov Institute of Bioorganic Chemistry, Russian Academy of Sciences, Pushchino, Russia) weighing 20–25 g were used. Animals that originally passed clinical examination that confirmed no deviations in health were divided into groups (at least eight male mice per group) using the principle of randomization. The average body weight of animals in each group was not statistically different between groups. Animals were housed at room temperature (23 ± 2 °C) and subjected to a 12-h light-dark cycle with food and water available ad libitum. All experiments were performed after receiving approval from the Animal Care and Use Committee of the Branch of the Institute of Bioorganic Chemistry, Russian Academy of Sciences (IBCh RAS) (Pushchino, Russia Federation). The samples were administered intramuscularly 2 h before testing (4 h in the open field test). The initial dose of 1 mg/kg was investigated for all samples, which was further reduced 5, 50, and 500 times for peptides.
CFA suspended in an oil/saline (1:1) emulsion was injected into the dorsal surfaces of the left hind paws of mice (20 µL/paw) 24 h before the samples’ intramuscular injection. The control mice received 20 µL of saline (intraplantar). The paw withdrawal latencies to thermal stimulation (53 °C) were measured 2 h after the sample injection. The paw diameter was evaluated before the CFA injection, before the samples and saline administration, and 2, 4, and 24 h after the administration using a digital calliper.
as §1

The mark [3] stands for this setting: intramuscular, 2 h before, n = 8.

“Also recorded” adds a separate entry of the source. Bridge positions count the residues as written; N and C are the ends. Peptide text beside a SMILES is read from it.

With `CC[C@H](C)[C@H](N)C(=O)N[C@@H](CO)C(=O)N[C@H](C(=O)N[C@@H](CC(=O)O)C(=O)N1CCC[C@H]1C(=O)N1CCC[C@H]1C(=O)N[C@H]1CSSC[C@@H](C(=O)NCC(=O)N[C@@H](C)C(=O)N[C@H](C(=O)O)C(C)C)NC(=O)CNC(=O)[C@H](Cc2ccc(O)cc2)NC(=O)[C@H](C)NC(=O)[C@H](CC(=O)O)NC(=O)[C@H](Cc2ccc(O)cc2)NC(=O)[C@H](C(C)C)NC(=O)[C@@H]2CSSC[C@H](NC(=O)[C@H](Cc3ccccc3)NC(=O)[C@H](CCCNC(=N)N)NC1=O)C(=O)N[C@@H](Cc1ccc(O)cc1)C(=O)N[C@@H](Cc1c[nH]cn1)C(=O)N[C@@H](CCCNC(=N)N)C(=O)N[C@@H](CC(=O)O)C(=O)NCC(=O)N[C@@H](CO)C(=O)NCC(=O)N[C@@H](CC(N)=O)C(=O)N2)[C@@H](C)CC` [Ugr9-1] (H-ISIDPPCRFCYHRDGSGNCVYDAYGCGAV-OH; disulfide 7-26, 10-19; N-terminus and C-terminus assumed), in assay [1] (Ugr9-1 versus APETx2), the “Effective dose, lower than that of APETx2, writhing test” value is on record as 10 times. In addition, the “Writhing test result (in words)” value in assay [1] (intramuscular, 2 h before) was “attenuated the response to the intraperitoneal administration of acetic acid; also recorded: The most stable effect was produced by Ugr9-1, and it was slightly more significant in lower doses (0.002 mg/kg)”. Moreover, the “Dose of maximal effect, writhing test” value in assay [1] (setting [3]) was 0.02 mg/kg. Moreover, the “Reduction of inflammation (paw oedema)” value in assay [2] (0.02 mg/kg intramuscular) was found to be 31%. Further, in assay [2], the “Anti-inflammatory effect within 4 h” value was “did not produce significant anti-inflammatory effects within 4 h”.
On to `O=C(O)Cc1ccccc1Nc1c(Cl)cccc1Cl` [diclofenac, reference compound], for which the “Maximal effect of reducing pain, writhing test” value in assay [1] (intramuscular, 2 h before, all doses) was ~ 75%. For the same compound, the “Anti-inflammatory effect within 4 h” value in assay [2] is recorded as “did not produce significant anti-inflammatory effects within 4 h”.
As for `O=C(O)C[C@H](C(=O)O)[C@@H](OC(=O)C1=Cc2cc(O)c(O)cc2[C@@H](c2ccc(O)c(O)c2)[C@@H]1C(=O)O[C@@H](C(=O)O)[C@H](CC(=O)O)C(=O)O)C(=O)O` [sevanol], in assay [1] (10 mg/kg intramuscular, 2 h before, n = 8), the Inhibition of writhing was determined as 76%. The “Writhing test result (in words)” value in assay [1] (intramuscular, 2 h before) was “attenuated the response to the intraperitoneal administration of acetic acid; also recorded: The efficacy of sevanol was also high”. In assay [1] (setting [3]), the “Dose of maximal effect, writhing test” value amounted to 10 mg/kg. For the same compound, in assay [1] (sevanol versus APETx2 and Ugr9-1), the “In vivo effect, compared with peptides” value is reported as “almost equipotent effect in vivo”. The “Reduction of inflammation (paw oedema)” value in assay [2] (2.5 mg/kg intramuscular) was found to be 22%. For the same compound, the “Anti-inflammatory effect within 4 h” value in assay [2] is recorded as “did not produce significant anti-inflammatory effects within 4 h”.
